Measurements taken from PubChem BioAssay (NCI).
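Dose response: 5 concentrations. Exposure: 48 h. Format: 96-well plates. Endpoint: linear interpolation; highest concentration if not reached. TGI marks complete inhibition of growth.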

Legend:
Assay in all cases: NCI-60 cell line screen, 48 h
SN12C renal = tested on: SN12C renal
RXF 393 renal = tested on: RXF 393 renal
HS 578T breast = tested on: HS 578T breast
SNB-75 CNS = tested on: SNB-75 CNS
SF-539 CNS = tested on: SF-539 CNS
786-0 renal = tested on: 786-0 renal
HOP-92 NSCLC = tested on: HOP-92 NSCLC
MDA-N = tested on: MDA-N
UO-31 renal = tested on: UO-31 renal
NCI-H226 lung = tested on: NCI-H226 lung
COLO 205 colon = tested on: COLO 205 colon

SMILES | TGI (SN12C renal) | TGI (RXF 393 renal) | TGI (HS 578T breast) | TGI (SNB-75 CNS) | TGI (SF-539 CNS) | TGI (786-0 renal) | TGI (HOP-92 NSCLC) | TGI (MDA-N) | TGI (UO-31 renal) | TGI (NCI-H226 lung) | TGI (COLO 205 colon)
COCOc1ccc(C(=O)Oc2cccc3c2OC(C)(C)O3)c(OCOC)c1 | > 100 µM | > 100 µM | 86 µM | > 100 µM | > 100 µM | > 100 µM | > 100 µM | > 100 µM | > 100 µM | > 100 µM | > 100 µM
O=C(ON=C1c2ccccc2C(Br)C(Br)c2ccccc21)c1ccccc1 (centres undefined) | 42.9 µM | 28.4 µM | 53.6 µM | > 65.9 µM | 13.9 µM | 23 µM | 5.27 µM | 34.5 µM | 8.32 µM | 34.1 µM | 36.7 µM
NC1=CC(=O)c2c(O)ccc(O)c2C1=O | 31.5 µM | 22.1 µM | 68.3 µM | 83.3 µM | 36 µM | 21.8 µM | 38.2 µM | 13.1 µM | 15.7 µM | > 100 µM | 20.9 µM
O=C(/C=C/c1ccc(O)c(O)c1)OCCc1ccc2ccccc2c1 | 17.8 µM | 21.6 µM | 24.1 µM | 8.22 µM | 19.1 µM | 20.9 µM | 19.6 µM | 5.45 µM | 13.1 µM | 32.3 µM | 16.4 µM
O=C(CCc1cc(O)cc(O)c1)NCCc1cc(OCc2ccccc2)cc(OCc2ccccc2)c1 | 35.9 µM | 27.4 µM | 48.7 µM | 24.5 µM | 44.6 µM | 41 µM | 45.3 µM | 35 µM | 15.3 µM | 51.3 µM | 44.3 µM
Cc1c(C)n(-c2ccccc2)c2nc(S(C)=O)nc(S(C)=O)c12 (centres undefined) | 24.6 µM | 14.4 µM | 70.5 µM | 23.3 µM | 14.7 µM | 10.1 µM | 4.62 µM | 13.6 µM | 20.2 µM | 36.2 µM | 3.41 µM
c1ccc(C2=NC3OC2c2ccccc23)cc1 (centres undefined) | > 10 µM | > 10 µM | > 10 µM | > 10 µM | > 10 µM | > 10 µM | > 10 µM | > 10 µM |  | > 10 µM | > 10 µM
COC(=O)c1ccccc1C1CN=NC12Cc1c(ccc(C)c1C)C2=O (centres undefined) | > 100 µM | > 100 µM | > 100 µM | 89.1 µM |  | > 100 µM | 84.2 µM | > 100 µM | > 100 µM | > 100 µM | > 100 µM
CCCCCCN(CCCCCC)C(=S)N/N=C(\C)c1ccccn1 | 2.56 µM | 2.78 µM | 4.46 µM | 3.68 µM | 2.77 µM | 2.38 µM | 6.43 µM | 5.56 µM | 3.07 µM | 2.27 µM | 2.14 µM
CC(=O)Nc1nc(Cl)cc(NCC2(CO)CCC2)n1 | > 100 µM | > 100 µM | > 100 µM | > 100 µM |  | > 100 µM | > 100 µM | > 100 µM | > 100 µM | > 100 µM | > 100 µM
CC(=O)O[C@@H](c1nccn1Cc1ccccc1)[C@H]1OC(C)(C)O[C@@H]1[C@H]1COC(C)(C)O1 | > 100 µM | > 100 µM | > 100 µM | > 100 µM | > 100 µM | > 100 µM | > 100 µM | > 100 µM | > 100 µM | > 100 µM | > 100 µM
COC(=O)/C=C(\C)CC/C=C(\C)CCC1OC1(C)C (centres undefined) | 20.8 µM | 23.8 µM | 35.2 µM | 38.8 µM | 24.1 µM | 23.6 µM | 22.8 µM | 21.9 µM | 20.8 µM | 24.8 µM | 30 µM
CCOC(=O)c1c(N2CCCC2)[nH]c(=O)c(C(c2ccc(OC)cc2)c2c(O)c(C(=O)OCC)c(N3CCCC3)[nH]c2=O)c1O | > 100 µM | > 100 µM | > 100 µM | 69 µM | > 100 µM | > 100 µM | 58.6 µM | > 100 µM | > 100 µM | > 100 µM | > 100 µM
CC(=O)c1ccc(Oc2c3ccccc3nc3ccccc23)cc1 | 16 µM | 21.3 µM | 31.3 µM | 29.7 µM | 5.5 µM | 9.61 µM | 25.6 µM | 14.2 µM | 13.2 µM | 26.4 µM | 7.55 µM
NS(=O)(=O)c1nnc(NC(=O)N(c2ccccc2)c2ccccc2)s1 | 40.8 µM | 51.4 µM | 73 µM | 72.4 µM | 34.7 µM | > 100 µM | 53 µM | 88.3 µM | > 100 µM | > 100 µM | > 100 µM
COc1ccc(N=Nc2c(-c3c(OC)cc4occc4c3OC)[nH]c(=O)c(C#N)c2C)cc1 | > 100 µM | > 100 µM | > 100 µM | > 100 µM | > 100 µM | > 100 µM | > 100 µM | > 100 µM | > 100 µM | > 100 µM | > 100 µM
CC(C)C(Br)CCC1=CCC(Br)(Br)C1 (centres undefined) | 15.2 µM | 29 µM | 47.4 µM | 23.3 µM | 33.7 µM | 29.6 µM | 19.5 µM | 10.4 µM | 21.9 µM | 26.9 µM | 29.6 µM
